From US20260070929A1, “METHODS AND COMPOSITIONS FOR MODULATING KRAS(G12D)” (Ranok Therapeutics (Hangzhou) Co. LTD., priority 2022, published 2026)
Read-outs that look alike come from different tables or passages of the source.

What was measured:
[1] = tested on: A-427 lung carcinoma cells [heterozygous G12D]; experiment: Cancer cell line proliferation (CellTiter-Glo), A-427; format: cell-based; settings: A-427 cells, 72 hr treatment, read-out: A427 CTG (EC50)
Outline: (§1)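 Cells at 4,000/well grown 72 hr, then treated with 3-fold serial dilutions (20 μM to 1.02 nM, 0.5% DMSO final) for 72 hr at 37° C/5% CO2. Viability by CellTiter-Glo luminescence; EC50 values calculated.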

[2] = tested on: ASPC1 pancreatic adenocarcinoma cells [homozygous G12D]; experiment: Cancer cell line proliferation (CellTiter-Glo), ASPC1; format: cell-based; settings: 72 hr treatment, read-out: ASPC-1 CTG (EC50)
Method: (§2) The following cancer cell lines were employed: AGS gastric carcinoma [heterozygous G12D](ATCC, CRL-1739); A-427 lung carcinoma [heterozygous G12D](ATCC, HTB-53); ASPC1 pancreatic adenocarcinoma [homozygous G12D](ATCC, CRL-1682) and SW1990 pancreatic adenocarcinoma [homozygous G12D](ATCC CRL-2172). Cell lines were cultured essentially according to ATCC recommendations.
(§3) AGS, A-427, ASPC1, SW1990, and GP2D cells were plated in 96-well tissue culture plates at 4,000 cells/well and incubated at 37° C./5% CO2 for 72 hr in 100 μl of media. 3-fold serial dilutions of each test compound were prepared ranging from 20 μM to 1.02 nM. Each cell line was then treated with test compounds at various concentrations with a final concentration of 0.5% DMSO/well, and then incubated at 37° C./5% CO2 for 72 hr. 100 µl of CellTiter-Glo® Reagent (Promega Corporation, Madison, WI) was added to each well and processed according manufacturer's protocol. Results were analyzed and EC50 values were calculated in GraphPad 7 software.

KRAS(G12D)/SOS1 = target: T1, KRAS(G12D)/SOS1 (Homo sapiens, UniProt P01116, G12D); experiment: KRAS(G12D)/SOS1 homogeneous time-resolved fluorescence (HTRF) assay; format: binding; settings: absence of GTP; 4° C., 3 hr
T1 construct: purchased Cisbio 63ADK000CB17PEH
Outline: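 HTRF kit assay of compound-blocked KRAS(G12D)–SOS1 interaction, run without GTP. Compounds were tested as 3-fold dilutions from 20 µM to 1.02 nM and incubated with the reaction components for 3 hr at 4 °C, sealed. IC50 was taken as the concentration giving 50% of maximal inhibition.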

[3] = tested on: AGS gastric carcinoma cells [heterozygous G12D]; experiment: Cancer cell line proliferation (CellTiter-Glo), AGS; format: cell-based; settings: 72 hr treatment, read-out: AGS CTG (EC50)
Outline: as §1

[4] = tested on: SW1990 pancreatic adenocarcinoma cells [homozygous G12D]; experiment: Cancer cell line proliferation (CellTiter-Glo), SW1990; format: cell-based; settings: Homo sapiens, 72 hr treatment, read-out: SW1990 CTG (EC50)
Method: as §2, §3

T1 sequence (P01116 1-188 isoform P01116-2 G12D): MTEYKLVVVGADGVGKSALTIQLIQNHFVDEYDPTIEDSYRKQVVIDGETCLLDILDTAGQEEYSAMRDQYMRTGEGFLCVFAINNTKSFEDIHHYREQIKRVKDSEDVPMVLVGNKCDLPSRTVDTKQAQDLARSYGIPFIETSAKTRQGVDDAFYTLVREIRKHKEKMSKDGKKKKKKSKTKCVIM

Row | Structure (SMILES) | EC50 ([1]; Homo sapiens) | EC50 ([2]; Homo sapiens, ASPC1, 72 h) | IC50 (KRAS(G12D)/SOS1) | EC50 ([3]; Homo sapiens) | EC50 [1] | EC50 [2] | EC50 [3] | EC50 [4]
1 | CCNC(=O)c1nnc(-c2cc(C(C)C)c(O)cc2O)n1-c1ccc(CN2CCN([C@H]3C[C@@H](COc4nc(N5CC6CCC(C5)N6)c5cnc(-c6cccc7cccc(C#N)c67)c(F)c5n4)N(C)C3)CC2)cc1 [Compound 59] | 100 to 1000 nM | 100 to 1000 nM | > 1000 nM | < 100 nM | – | – | – | –
2 | CCNC(=O)c1nnc(-c2cc(C(C)C)c(O)cc2O)n1-c1ccc(CN2CCN([C@H]3C[C@@H](COc4nc(N5CC6CCC(C5)N6)c5cnc(-c6ccccc6C(F)(F)F)c(F)c5n4)N(C)C3)CC2)cc1 [Compound 60] | 100 to 1000 nM | 100 to 1000 nM | > 1000 nM | < 100 nM | – | – | – | –
3 | Cc1c(F)cccc1-c1ncc2c(N3CC4CCC(C3)N4)nc(OC[C@@H]3C[C@H](N4CCN(Cc5ccc6c(c5)CN(C(=O)c5cc(C(C)C)c(O)cc5O)C6)CC4)CN3C)nc2c1F [Compound 61] | 100 to 1000 nM | 100 to 1000 nM | > 1000 nM | 100 to 1000 nM | – | – | – | –
4 | CCNC(=O)c1nnc(-c2cc(C(C)C)c(O)cc2O)n1-c1ccc(CN2CCN([C@H]3C[C@@H](COc4nc(N5CC6CCC(C5)N6)c5cnc(-c6cccc(F)c6C)c(F)c5n4)N(C)C3)CC2)cc1 [Compound 62] | < 100 nM | 100 to 1000 nM | > 1000 nM | < 100 nM | – | – | – | –
5 | CC(C)c1cc(C(=O)N2Cc3ccc(CN4CCN([C@H]5C[C@@H](COc6nc(N7CC8CCC(C7)N8)c7cnc(-c8cccc9cccc(C#N)c89)c(F)c7n6)N(C)C5)CC4)cc3C2)c(O)cc1O [Compound 63] | < 100 nM | 100 to 1000 nM | 100 to 1000 nM | 100 to 1000 nM | – | – | – | –
6 | CC(C)c1cc(C(=O)N2Cc3ccc(CN4CCN(C[C@H]5CC[C@@H](COc6nc(N7CC8CCC(C7)N8)c7cnc(-c8cc(O)cc9ccccc89)c(F)c7n6)N5C)CC4)cc3C2)c(O)cc1O [Compound 64] | 100 to 1000 nM | 100 to 1000 nM | < 100 nM | 100 to 1000 nM | – | – | – | –
7 | CCNC(=O)c1nnc(-c2cc(C(C)C)c(O)cc2O)n1-c1ccc(CN2CCN(C[C@H]3CC[C@@H](COc4nc(N5CC6CCC(C5)N6)c5cnc(-c6cc(O)cc7ccccc67)c(F)c5n4)N3C)CC2)cc1 [Compound 65] | < 100 nM | 100 to 1000 nM | < 100 nM | < 100 nM | – | – | – | –
8 | CCNC(=O)c1nnc(-c2cc(C(C)C)c(O)cc2O)n1-c1ccc(CN2CCN(C[C@H]3CC[C@@H](COc4nc(N5CC6CCC(C5)N6)c5cnc(-c6cccc7ccccc67)c(F)c5n4)N3C)CC2)cc1 [Compound 66] | < 100 nM | 100 to 1000 nM | 100 to 1000 nM | < 100 nM | – | – | – | –
9 | Cc1cccc2cccc(-c3ncc4c(N5CC6CCC(C5)N6)nc(OC[C@@H]5C[C@H](N6CCN(Cc7ccc8c(c7)CN(C(=O)c7cc(C(C)C)c(O)cc7O)C8)CC6)CN5C)nc4c3F)c12 [Compound 68] | – | – | > 1000 nM | – | 100 to 1000 nM | > 1000 nM | 100 to 1000 nM | –
10 | CCNC(=O)c1nnc(-c2cc(C(C)C)c(O)cc2O)n1-c1ccc(CN2CCN([C@H]3C[C@@H](COc4nc(N5CC6CNC(C6)C5)c5cnc(-c6cccc7cccc(C)c67)c(F)c5n4)N(C)C3)CC2)cc1 (some centres unmarked) [Compound 69] | 100 to 1000 nM | > 1000 nM | > 1000 nM | 100 to 1000 nM | – | – | – | –
11 | CC(C)c1cc(C(=O)N2Cc3ccc(CN4CCC(C(=O)N5CCN(C[C@H]6CC[C@@H](COc7nc(N8CC9CCC(C8)N9)c8cnc(-c9cc(O)cc%10ccccc9%10)c(F)c8n7)N6C)CC5)CC4)cc3C2)c(O)cc1O [Compound 70] | 100 to 1000 nM | > 1000 nM | < 100 nM | 100 to 1000 nM | – | – | – | –
12 | C#Cc1cccc2cc(O)cc(-c3ncc4c(N5CC6CCC(C5)N6)nc(OCC5(CN6CCN(CC7CCN(c8ccc9c(c8)CN(C(=O)c8cc(C(C)C)c(O)cc8O)C9)CC7)CC6)CC5)nc4c3F)c12 [Compound 133] | 100 to 1000 nM | 100 to 1000 nM | < 100 nM | 100 to 1000 nM | – | – | – | –
13 | C#Cc1cccc2cc(O)cc(-c3ncc4c(N5CC6CNC(C6)C5)nc(OCC5(CN6CCN(CC7CCN(Cc8ccc(-n9c(C(=O)NC(C)C(F)(F)F)nnc9-c9cc(C(C)C)c(O)cc9O)cc8)CC7)CC6)CC5)nc4c3F)c12 (centres unmarked) [Compound 134] | 100 to 1000 nM | 100 to 1000 nM | < 100 nM | 100 to 1000 nM | – | – | – | –
14 | C#Cc1cccc2cc(O)cc(-c3ncc4c(N5CC6CNC(C6)C5)nc(OCC5(CN6CCN(CC7CCN(Cc8ccc(-n9c(C(=O)NCC(F)(F)F)nnc9-c9cc(C(C)C)c(O)cc9O)cc8)CC7)CC6)CC5)nc4c3F)c12 (centres unmarked) [Compound 135] | 100 to 1000 nM | 100 to 1000 nM | < 100 nM | 100 to 1000 nM | – | – | – | –
15 | C#Cc1cccc2cc(O)cc(-c3ncc4c(N5CC6CNC(C6)C5)nc(OCC5(CN6CCN(CC7CCN(C(=O)C8CCN(Cc9ccc%10c(c9)CN(C(=O)c9cc(C(C)C)c(O)cc9O)C%10)CC8)CC7)CC6)CC5)nc4c3F)c12 (centres unmarked) [Compound 136] | 100 to 1000 nM | > 1000 nM | 100 to 1000 nM | 100 to 1000 nM | – | – | – | –
16 | CC(C)c1cc(-c2nnc(C(=O)NC(C)C(F)(F)F)n2-c2ccc(CN3CCC(CN4CCN(CC5(COc6nc(N7CC8CCC(C7)N8)c7cnc(-c8cccc9ccccc89)c(F)c7n6)CC5)CC4)CC3)cc2)c(O)cc1O (centres unmarked) [Compound 137] | 100 to 1000 nM | 100 to 1000 nM | 100 to 1000 nM | 100 to 1000 nM | – | – | – | –
17 | C#Cc1cccc2cc(O)cc(-c3ncc4c(N5CC6CCC(C5)N6)nc(OCC5(CN6CC[C@H](C(=O)N7CCN(Cc8ccc9c(c8)CN(C(=O)c8cc(C(C)C)c(O)cc8O)C9)CC7)C6)CC5)nc4c3F)c12 [Compound 139] | 100 to 1000 nM | > 1000 nM | < 100 nM | 100 to 1000 nM | – | – | – | –
18 | C#Cc1cccc2cc(O)cc(-c3ncc4c(N5CC6CCC(C5)N6)nc(OCC5(CN6CCC(OC7CCN(Cc8ccc(-n9c(C(=O)NC(C)C(F)(F)F)nnc9-c9cc(C(C)C)c(O)cc9O)cc8)CC7)CC6)CC5)nc4c3F)c12 (centres unmarked) [Compound 140] | < 100 nM | < 100 nM | < 100 nM | < 100 nM | – | – | – | –
19 | C#Cc1cccc2cc(O)cc(-c3ncc4c(N5CC6CCC(C5)N6)nc(OCC5(CN6CCC(OC7CCN(C(=O)C8CCN(Cc9ccc%10c(c9)CN(C(=O)c9cc(C(C)C)c(O)cc9O)C%10)CC8)CC7)CC6)CC5)nc4c3F)c12 [Compound 141] | < 100 nM | 100 to 1000 nM | < 100 nM | < 100 nM | – | – | – | –
20 | C#Cc1cccc2cc(O)cc(-c3ncc4c(N5CC6CCC(C5)N6)nc(OCC5(CN6CCN(CC7CCN(Cc8ccc(-n9c(C(=O)NCC)nnc9-c9cc(C(C)C)c(OC)cc9OC)cc8)CC7)CC6)CC5)nc4c3F)c12 [Compound 195] | – | – | – | 100 to 1000 nM | – | – | – | 100 to 1000 nM
21 | C#Cc1cccc2cc(O)cc(-c3ncc4c(N5CC6CNC(C6)C5)nc(OCC5(CN6CCN(CC7CCN(Cc8ccc(-n9c(C(=O)NCC)nnc9-c9cc(C(C)C)c(O)cc9O)cc8)CC7)CC6)CC5)nc4c3F)c12 (centres unmarked) [Compound 197] | – | – | – | < 100 nM | – | – | – | 100 to 1000 nM
22 | C#Cc1c(F)ccc2cc(O)cc(-c3ncc4c(N5CC6CCC(C5)N6)nc(OCC5(CN6CCC(C7CCN(Cc8ccc9c(c8)CN(C(=O)c8cc(C(C)C)c(OC)cc8OC)C9)CC7)CC6)CC5)nc4c3F)c12 [Compound 199] | – | – | – | 100 to 1000 nM | – | – | – | 100 to 1000 nM
23 | C#Cc1c(F)ccc2cc(O)cc(-c3ncc4c(N5CC6CCC(C5)N6)nc(OCC5(CN6CC(N7CCN(Cc8ccc(-n9c(C(=O)NC(C)C(F)(F)F)nnc9-c9cc(C(C)C)c(O)cc9O)cc8)CC7)C6)CC5)nc4c3F)c12 (centres unmarked) [Compound 203] | – | – | – | – | – | – | – | < 100 nM
